Reference: patent EP4656654A1, “SOMATOSTATIN PEPTIDE ANALOGUE, CHELATE AND USE THEREOF” (Qianhangjiang Pharmaceutical Co., Ltd., priority 2023, dated 2025)
Where two headings read alike, the source gives them in different places. Numbered stars: 1 amine (or outer) side, 2 acyl side, 3 side chain; on linkers, the order of the positions; unused ones are H or OH. Bridge positions count the residues as written; N and C are the ends. Square brackets hold non-standard residues; d marks the D form. Peptide text beside a SMILES is read from it. * marks the point of attachment. Phe(3-CH2NH2) = O=C([C@H](Cc1cccc(CN[*:3])c1)N[*:1])[*:2]; DOTA = O=C(O)CN1CCN(CC(=O)O)CCN(CC(=O)*)CCN(CC(=O)O)CC1; X2 = CC(C)(CN)CC[C@H](N[*:1])C(=O)[*:2]; X1 = CC(CN)CC[C@H](N[*:1])C(=O)[*:2]; Thr(ol) = C[C@@H](O)[C@H](N)CO

Biological target: T1, SSTR2 (Homo sapiens, UniProt P30874)
T1 construct: host or cells: CHO-K1
Assay: competitive radioligand binding assay (125I-Tyr11-Somatostatin-14) on membranes of SSTR2-overexpressing CHO-K1 cells
Settings: for EC50: radioligand 125I-Tyr11-Somatostatin-14, SSTR2 CHO-K1 cell membrane; for Bottom: parameter A, bottom of fitted % Effect curve; for Top: parameter B, top of fitted % Effect curve; for Hill slope: parameter D of fitted curve
Experimental: A competitive radioligand binding assay is utilized to measure the binding affinity of the somatostatin analogs of Formula II of the present invention. SSTR2-overexpressing CHO-K1 cells (Hunter Express SSTR2 CHO-K1; DiscoverX) are used in the radioligand competitive binding assay, with ^125I-Tyr^11-Somatostatin-14 (PerkinElmer) as the radioligand. The assay is performed as follows:
SSTR2-overexpressing CHO-K1 cells (from Discover X) were cultured in complete medium (F12 basal medium with 10% FBS and 1% P/S [100 U/mL penicillin and 100 µg/mL streptomycin]) in a 37°C incubator with 5% CO2. When the cell confluency reached 80-90%, the cells were washed twice with pre-cooled PBS. The cells were then scraped off with a cell scraper and transferred to a 50 mL centrifuge tube, followed by centrifugation at 500×g and 4°C for 10 minutes. The supernatant was discarded, and the cell pellet was retained. Cell membrane lysis buffer (containing 25 mM HEPES, 1 mM EDTA, 2 mM MgCl2, and 1× protease inhibitor, pH = 7.4) was added at a ratio of 4 × 10^7 cells/10 mL and placed on ice for 10 minutes. The cells were then disrupted using an IKA disruptor. The operating procedure was 15,000 rpm for 10 seconds, repeated twice. The disrupted cell suspension was centrifuged at 4°C and 650×g for 5 minutes. The supernatant was transferred to a new centrifuge tube and centrifuged at 13,000 rpm and 4°C for 30 minutes. The supernatant was discarded, and the cell membrane pellet was resuspended in 1.6 mL of resuspension buffer, which was cell membrane lysis buffer supplemented with 10% sucrose. The cell membrane lysis buffer was repeatedly aspirated 4 times with a 27-gauge needle to break the DNA. The cell membrane extract was measured for protein concentration using the BCA method and aliquoted and stored at -80°C.
• (1) Dilution of Compound: The assay buffer used contains 50 mM Hepes, 5 mM MgCl2, 1 mM CaCl2, and 0.5% BSA, pH = 7.4, and the buffer is filtered. The assay buffer is kept at 4°C. The ligand solution is serially diluted using an Agilent Bravo. Each test compound is diluted […] in succession. The eight binding concentrations of typical compounds are: 50 nM, 12.5 nM, 3.13 nM, 0.78 nM, 0.20 nM, 0.05 nM, 12.2 pM, and 3.05 pM. The affinity of each concentration is measured twice. Transfer 1 µL of each diluted compound to the corresponding wells of a 96-well V-bottom plate. • (2) Preparation of 125I-SST: The stock solution of 125I-SST was diluted to 3 nM (10×) with binding buffer (containing 50 mM Hepes, 5 mM MgCl2, 1 mM CaCl2, and 0.5% BSA, pH = 7.4, stored at 4°C). Transfer 10 µL of the solution to the corresponding compound well. • (3) Binding Experiment: The extracted cell membrane was diluted to 2.5 µg/90 µL with binding buffer and added to the corresponding wells. The mixture was incubated at 500 rpm on a 25°C shaker for 2 hours. The membrane complex was collected into a 0.5% PEI pre-coated GF/B plate using a Cell Harvester, and rinsed 3 times per well with 200 µL of pre-cooled buffer (4°C) (the same buffer used to dilute the compound). The plate was dried at 37°C for 2 hours. After adding 50 µL of liquid scintillation fluid (MicroScint20, Perkin Elmer) to each well and incubating for 30 minutes, the radioactivity was measured using a Topcount plate reader for 30 seconds per well.
For each compound, its 8-point reading data (2× of 8 readings) were imported into XLfit software and fitted to the sigmoidal curve. The EC50 of the compound for SSTR2 was calculated based on the mathematically optimal sigmoidal dose-response model equation: y−A + ((B−A))/(1 + (((C)/(x)))^D) [formula] where A represents the bottom of the curve, B represents the top of the curve, C represents the relative EC50, D represents the Hill slope, y represents the percentage effect value (% Effect) of the curve fitting, and x represents the molar concentration.

[1] = concentration x calculated from the fit at y = 50% effect, read-out: Absolute EC50
[2] = parameter C of sigmoidal fit, 8 concentrations in duplicate, read-out: Relative EC50

T1 sequence (P30874 whole entry): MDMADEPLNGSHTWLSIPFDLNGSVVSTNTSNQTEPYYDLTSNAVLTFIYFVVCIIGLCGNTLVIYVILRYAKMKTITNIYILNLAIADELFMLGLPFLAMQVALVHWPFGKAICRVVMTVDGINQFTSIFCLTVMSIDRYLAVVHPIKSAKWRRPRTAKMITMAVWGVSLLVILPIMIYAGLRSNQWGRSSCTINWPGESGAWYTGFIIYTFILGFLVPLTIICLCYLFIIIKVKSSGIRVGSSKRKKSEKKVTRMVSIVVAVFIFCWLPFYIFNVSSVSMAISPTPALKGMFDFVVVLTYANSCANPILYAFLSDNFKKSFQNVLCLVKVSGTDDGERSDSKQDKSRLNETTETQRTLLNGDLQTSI

| EC50 [1] [pM] | Bottom [%] | Top [%] | EC50 [2] [pM] | Hill slope | Structure (SMILES) |
| --- | --- | --- | --- | --- | --- |
| 71 | 11.7 | 99.9 | 91 | 1.07 | C[C@@H](O)[C@@H]1NC(=O)[C@H](C2CCCC(CN)C2)NC(=O)[C@@H](Cc2c[nH]c3ccccc23)NC(=O)[C@H](Cc2ccccc2)NC(=O)[C@@H](NC(=O)[C@H](N)Cc2ccccc2)CSSC[C@@H](C(=O)N[C@H](CO)[C@@H](C)O)NC1=O (single isomer, unassigned) [Compound 4] |
|  | 10.8 | 99.5 |  | 1.08 | C[C@@H](O)[C@@H]1NC(=O)[C@H](C2CCCC(CN)C2)NC(=O)[C@@H](Cc2c[nH]c3ccccc23)NC(=O)[C@H](Cc2ccccc2)NC(=O)[C@@H](NC(=O)[C@H](N)Cc2ccccc2)CSSC[C@@H](C(=O)N[C@H](CO)[C@@H](C)O)NC1=O (single isomer, unassigned) [Compound 7p2] |
| 740 |  |  | 1300 |  | C[C@@H](O)[C@@H]1NC(=O)[C@H](CCCCCN)NC(=O)[C@@H](Cc2c[nH]c3ccccc23)NC(=O)[C@H](Cc2ccccc2)NC(=O)[C@@H](NC(=O)[C@H](N)Cc2ccccc2)CSSC[C@@H](C(=O)N[C@H](CO)[C@@H](C)O)NC1=O [Compound 1] |
| 1000 |  |  | 1200 |  | C[C@@H](O)[C@@H]1NC(=O)[C@H](CCC(C)(C)CN)NC(=O)[C@@H](Cc2c[nH]c3ccccc23)NC(=O)[C@H](Cc2ccccc2)NC(=O)[C@@H](NC(=O)[C@H](N)Cc2ccccc2)CSSC[C@@H](C(=O)N[C@H](CO)[C@@H](C)O)NC1=O [Compound 2] (H-[dF]CF[dW][X2]TC[Thr(ol)]; disulfide 2-7) |
| 250 |  |  | 290 |  | CC(CN)CC[C@@H]1NC(=O)[C@@H](Cc2c[nH]c3ccccc23)NC(=O)[C@H](Cc2ccccc2)NC(=O)[C@@H](NC(=O)[C@H](N)Cc2ccccc2)CSSC[C@@H](C(=O)N[C@H](CO)[C@@H](C)O)NC(=O)[C@H]([C@@H](C)O)NC1=O (some centres unmarked) [Compound 3] (H-[dF]CF[dW][X1]TC[Thr(ol)]; disulfide 2-7) |
|  | 8.7 | 100.0 |  | 0.84 | C[C@@H](O)[C@@H]1NC(=O)[C@H](Cc2cccc(CN)c2)NC(=O)[C@@H](Cc2c[nH]c3ccccc23)NC(=O)[C@H](Cc2ccccc2)NC(=O)[C@@H](NC(=O)[C@H](N)Cc2ccccc2)CSSC[C@@H](C(=O)N[C@H](CO)[C@@H](C)O)NC1=O [Compound 5] (H-[dF]CF[dW][Phe(3-CH2NH2)]TC[Thr(ol)]; disulfide 2-7) |
|  | 13.2 | 98.3 |  | 0.88 | C[C@@H](O)[C@H](NC(=O)[C@@H]1CSSC[C@H](NC(=O)[C@@H](Cc2ccccc2)NC(=O)CN2CCN(CC(=O)O)CCN(CC(=O)O)CCN(CC(=O)O)CC2)C(=O)N[C@@H](Cc2ccc(O)cc2)C(=O)N[C@H](Cc2c[nH]c3ccccc23)C(=O)N[C@@H](CCC(C)(C)CN)C(=O)N[C@@H]([C@@H](C)O)C(=O)N1)C(=O)O [Compound 6] ({DOTA}-[dF]CY[dW][X2]TCT-OH; disulfide 2-7; N-terminus and C-terminus assumed) |
